According to US4533739A, “2-[(Aminophenyl and amidophenyl)amino]-1-azacycloalkanes having antidiarrheal activity” (G. D. Searle & Co., priority 1982, dated 1985):
Counter-ions that a name gives are not always drawn.

system: not given; assay: not given; conditions: lowering of blood pressure, hyperglycemic activity, inhibitory action on central nervous system; cited from earlier work

For `Clc1cccc(Cl)c1N=C1CCCN1` [2-(2,6-dichloroophenylimino)pyrrolidine], the “pharmacodynamic activity in words” value is listed as “pharmacodynamically active”.

system: castor-oil-induced diarrhea; assay: Castor oil-induced diarrhea in rats; conditions: Rattus norvegicus, po, 4 h, read-out: Castor Oil ID50 (mg/kg)-4 hr.

Going from `Cc1cc(N)cc(C)c1NC1=NCCC1.Cl.Cl` [Example 11, 2-[(2,6-Dimethyl-4-aminophenyl)amino]-1-pyrroline, dihydrochloride] to `Cc1cc(N)ccc1NC1=NCCC1.Cl.Cl` [Example 9, 2-[(2-Methyl-4-aminophenyl)amino]-1-pyrroline, dihydrochloride], the ED50 falls from 13.6 mg/kg to 0.97 mg/kg (14-fold).

Going from `CCC(=O)Nc1ccc(NC2=NCCC2)c(C)c1.Cl` [Example 18, 2-[(2-Methyl-4-(propanamido)phenyl)amino]-1-pyrroline, hydrochloride] to `CC(=O)Nc1ccc(NC2=NCCC2)c(C)c1` [Example 16, 2-[(2-Methyl-4-acetamidopheny)amino]-1-pyrroline, hydrochloride], the ED50 rises from 0.97 mg/kg to 3.63 mg/kg (3.7-fold).

For `CCOC(=O)Nc1ccc(NC2=NCCC2)c(C)c1.Cl` [Example 23, 2-[(2-Methyl-4-(ethoxycarbonylamino)phenyl)-amino]-1-pyrroline, hydrochloride], the ED50 was 1.81 mg/kg.
